This is an account of results in PubChem BioAssay (NCI).

The structures appear in SMILES notation.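 Grown in 96-well plates, cells were treated for 48 hours with each compound at five concentrations. Insufficient inhibition: endpoint recorded as highest concentration tested. The concentration for 50% growth inhibition is given as GI50. At the TGI there is no net growth.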 A value given as a limit tells only on which side of the number the result lay.

Some test systems named below: 786-0 renal; EKVX NSCLC; IGROV1 ovarian; MCF7 breast; MOLT-4 leukemia; NCI-H23 lung; NCI-H460 lung; OVCAR-4 ovarian; SK-MEL-28 melanoma; T-47D breast.
Common to all, as to test: NCI tumour cell line growth inhibition, 48 h

As to `COc1ccc2c(c1)/C(=C\c1c[nH]c3ccc(OC)cc13)C(=O)N2`, the GI50 was 5.35 µM in the assay on 786-0 renal; 3.01 µM in the assay with EKVX NSCLC; 3.66 µM in the assay with IGROV1 ovarian; 2.65 µM in the assay on MCF7 breast; 2.95 µM with MOLT-4 leukemia; 4.46 µM in the assay on NCI-H23 lung. For the same molecule, the GI50 in the assay on NCI-H460 lung was 3.26 µM; with OVCAR-4 ovarian, 3.5 µM; in the assay on SK-MEL-28 melanoma, 4.56 µM; in the assay on T-47D breast it was 2.99 µM. Also, the TGI came out at 17.6 µM in the assay with 786-0 renal; 15.4 µM in the assay on EKVX NSCLC; 17.1 µM with IGROV1 ovarian; 13.1 µM in the assay on MCF7 breast; 8.14 µM in the assay with MOLT-4 leukemia; 21 µM with NCI-H23 lung. The TGI in the assay with NCI-H460 lung was determined as 13.1 µM; with OVCAR-4 ovarian it was 22.8 µM; in the assay on SK-MEL-28 melanoma it was 16.7 µM; with T-47D breast, 13.4 µM.

Turning to `COc1cccc(CC(C)=C(c2ccc(OCCCN(C)C)cc2)c2ccc(OCCCN(C)C)cc2)c1`, the GI50 in the assay with 786-0 renal was 0.416 µM; in the assay on EKVX NSCLC it was 1.64 µM; in the assay on IGROV1 ovarian, 0.549 µM; with MCF7 breast it was 0.441 µM; with MOLT-4 leukemia it was 0.502 µM; with NCI-H23 lung, 2.87 µM. Also, the GI50 is 0.484 µM in the assay on NCI-H460 lung, 0.575 µM in the assay on OVCAR-4 ovarian, 0.448 µM with SK-MEL-28 melanoma and 0.437 µM with T-47D breast. Besides, the TGI in the assay on 786-0 renal worked out at 0.771 µM; with EKVX NSCLC, 5.17 µM; in the assay on IGROV1 ovarian it was 1.19 µM; with MCF7 breast it was 0.859 µM; with MOLT-4 leukemia, 1.11 µM; in the assay with NCI-H23 lung, 6.31 µM. The TGI was 0.94 µM with NCI-H460 lung, 1.41 µM with OVCAR-4 ovarian, 0.822 µM in the assay with SK-MEL-28 melanoma and 0.884 µM in the assay on T-47D breast.

Take `Nc1n[nH]c2ccc([C@@H]3Nc4cc5[nH]ncc5cc4[C@H]4C5CCC(C5)[C@@H]34)cc12` (some centres undefined): the GI50 was 0.709 µM in the assay on 786-0 renal; 0.485 µM with EKVX NSCLC; 0.533 µM in the assay on IGROV1 ovarian; 0.384 µM with MCF7 breast; 0.442 µM in the assay with MOLT-4 leukemia; 0.472 µM with NCI-H23 lung. Further, the GI50 is 0.368 µM with NCI-H460 lung, 9.3 µM in the assay on OVCAR-4 ovarian, 10.5 µM in the assay with SK-MEL-28 melanoma and 0.498 µM with T-47D breast. The TGI with 786-0 renal is > 66.7 µM; with EKVX NSCLC it was > 100 µM; with IGROV1 ovarian, 41.8 µM; in the assay with MCF7 breast it was > 80.8 µM; in the assay on MOLT-4 leukemia it was > 100 µM; in the assay with NCI-H23 lung, > 71.7 µM. For the same molecule, the TGI in the assay with NCI-H460 lung is > 41.4 µM; with OVCAR-4 ovarian, > 100 µM; with SK-MEL-28 melanoma it was 72.2 µM; in the assay with T-47D breast, 79.8 µM.

On to `NCCC(=O)NC(Cc1cnc[nH]1)C(=O)O` (centres undefined), for which the TGI in the assay with 786-0 renal, in the assay on EKVX NSCLC, in the assay with IGROV1 ovarian, in the assay on MCF7 breast, in the assay on MOLT-4 leukemia and in the assay with NCI-H23 lung was > 100 µM in each case. The TGI in the assay on NCI-H460 lung, in the assay on OVCAR-4 ovarian, in the assay with SK-MEL-28 melanoma and in the assay on T-47D breast was > 100 µM in each case.

As to `NC(=O)c1cccc(-c2cc(C(N)=O)ccc2Cl)c1`, the GI50 in the assay on 786-0 renal is 5.37 µM; with EKVX NSCLC, 4.37 µM; in the assay on IGROV1 ovarian it was 4.21 µM; in the assay on MCF7 breast, 1.01 µM; with MOLT-4 leukemia, 2.22 µM; in the assay with NCI-H23 lung it was 9.21 µM. Also, the GI50 in the assay with NCI-H460 lung was 12.2 µM; in the assay with OVCAR-4 ovarian, 9.21 µM; in the assay with SK-MEL-28 melanoma it was 7.17 µM; in the assay on T-47D breast it was 4.56 µM. The TGI was > 100 µM with 786-0 renal; > 100 µM with EKVX NSCLC; > 100 µM in the assay with IGROV1 ovarian; > 100 µM in the assay on MCF7 breast; 95.7 µM in the assay on MOLT-4 leukemia; > 100 µM in the assay on NCI-H23 lung. The TGI was 54 µM in the assay with NCI-H460 lung, > 100 µM with OVCAR-4 ovarian, > 100 µM in the assay with SK-MEL-28 melanoma and > 100 µM in the assay with T-47D breast.

Regarding `O=c1cccc(C#CC#CCCCO)o1`, the GI50 in the assay on 786-0 renal is 5.27 µM; in the assay with EKVX NSCLC, 3 µM; in the assay with IGROV1 ovarian, 2.65 µM; in the assay with MCF7 breast, 5.02 µM; in the assay with MOLT-4 leukemia it was 4.82 µM; in the assay on NCI-H23 lung it was 4.17 µM. Further, the GI50 in the assay with NCI-H460 lung was 9.55 µM; in the assay with OVCAR-4 ovarian it was 8.59 µM; with SK-MEL-28 melanoma, 5.85 µM; in the assay on T-47D breast it was 3.64 µM. In addition, the TGI in the assay with 786-0 renal was 14 µM; in the assay on EKVX NSCLC, 7.6 µM; in the assay with IGROV1 ovarian, > 22.1 µM; in the assay on MCF7 breast, 38.3 µM; in the assay with MOLT-4 leukemia, > 28.8 µM; in the assay with NCI-H23 lung, 11.7 µM. Besides, the TGI with NCI-H460 lung is 33.6 µM; in the assay with OVCAR-4 ovarian, > 57.9 µM; in the assay with SK-MEL-28 melanoma it was 22.2 µM; in the assay on T-47D breast, 27.3 µM.

Take `O=S(=O)(NC1=NCCN1C(=S)SN1CCn2c1nsc2=S)c1cccc(OC(F)(F)F)c1`: the GI50 is 12 µM in the assay on 786-0 renal; 44 µM with EKVX NSCLC; 9.86 µM in the assay on IGROV1 ovarian; 4.17 µM in the assay with MCF7 breast; 2.71 µM in the assay on MOLT-4 leukemia; 12.8 µM with NCI-H23 lung. The GI50 is 13.4 µM with NCI-H460 lung, 12.5 µM in the assay with OVCAR-4 ovarian, 15.9 µM in the assay on SK-MEL-28 melanoma and 12.3 µM in the assay with T-47D breast. In addition, the TGI was 27.1 µM with 786-0 renal; > 100 µM in the assay with EKVX NSCLC; 46.6 µM in the assay on IGROV1 ovarian; 17.2 µM in the assay with MCF7 breast; 10.8 µM with MOLT-4 leukemia; 32.1 µM with NCI-H23 lung. Also, the TGI stood at 41.4 µM with NCI-H460 lung, 27.9 µM with OVCAR-4 ovarian, 32.6 µM in the assay on SK-MEL-28 melanoma and 39.4 µM in the assay with T-47D breast.

As for `Nc1cc2cccc[n+]2c2cccc(Cl)c12`, the GI50 in the assay with 786-0 renal is 22.1 µM; in the assay on EKVX NSCLC, 32.1 µM; in the assay with IGROV1 ovarian it was 69.9 µM; in the assay on MCF7 breast, 19.4 µM; in the assay with MOLT-4 leukemia it was 7.46 µM; in the assay on NCI-H23 lung it was 14.3 µM. Moreover, the GI50 is 20.2 µM in the assay with NCI-H460 lung, 17.1 µM in the assay with OVCAR-4 ovarian, 17 µM in the assay with SK-MEL-28 melanoma and 9.86 µM with T-47D breast. Moreover, the TGI came to 65.6 µM in the assay with NCI-H23 lung, 58.7 µM in the assay with NCI-H460 lung, 72.8 µM with OVCAR-4 ovarian and 41.7 µM in the assay on SK-MEL-28 melanoma.

Regarding `Cn1nnc2c(C(N)=O)ncn2c1=O`, the TGI with 786-0 renal, in the assay with EKVX NSCLC, in the assay with IGROV1 ovarian, in the assay with MCF7 breast, in the assay with MOLT-4 leukemia and in the assay with NCI-H23 lung was > 100 µM each time. Also, the TGI in the assay on NCI-H460 lung, in the assay on OVCAR-4 ovarian, with SK-MEL-28 melanoma and with T-47D breast was > 100 µM each time.
